Literature values as cited in patent US6849271B2, “Microcapsule matrix microspheres, absorption-enhancing pharmaceutical compositions and methods” (Verion, Inc., priority 2001, dated 2005).

Conditions: published by the FDA

| permeability class | SMILES |
| --- | --- |
| Low | CC1(C)S[C@@H]2[C@H](NC(=O)[C@H](N)c3ccc(O)cc3)C(=O)N2[C@H]1C(=O)O [Amoxicillin] |
| Low | CNC(=C[N+](=O)[O-])NCCSCc1ccc(CN(C)C)o1 [Ranitidine] |
| Low | OC[C@@H](O)[C@@H](O)[C@H](O)[C@H](O)CO [Mannitol] |
| Low | C[C@](N)(Cc1ccc(O)c(O)c1)C(=O)O [L-Methyldopa] |
